Laboratory results reported in publication PMC7251097, “Aspartate/asparagine-β-hydroxylase: a high-throughput mass spectrometric assay for discovery of small molecule inhibitors” (Scientific Reports, 2020).
Where a name gives a salt, the structure may show the parent alone. Read-outs that look alike come from different tables or passages of the source.

Biological target: T1, His6-AspH315–758 (human aspartate/asparagine-β-hydroxylase, AspH) (Homo sapiens, UniProt Q12797)
T1 construct: N-Terminally His6-tagged human AspH315–758 (His6-AspH315–758) was produced in E. coli BL21 (DE3) cells; made in house; host or cells: E. coli BL21 (DE3), pET-28a(+) vector
T1 sequence (Q12797 315-758): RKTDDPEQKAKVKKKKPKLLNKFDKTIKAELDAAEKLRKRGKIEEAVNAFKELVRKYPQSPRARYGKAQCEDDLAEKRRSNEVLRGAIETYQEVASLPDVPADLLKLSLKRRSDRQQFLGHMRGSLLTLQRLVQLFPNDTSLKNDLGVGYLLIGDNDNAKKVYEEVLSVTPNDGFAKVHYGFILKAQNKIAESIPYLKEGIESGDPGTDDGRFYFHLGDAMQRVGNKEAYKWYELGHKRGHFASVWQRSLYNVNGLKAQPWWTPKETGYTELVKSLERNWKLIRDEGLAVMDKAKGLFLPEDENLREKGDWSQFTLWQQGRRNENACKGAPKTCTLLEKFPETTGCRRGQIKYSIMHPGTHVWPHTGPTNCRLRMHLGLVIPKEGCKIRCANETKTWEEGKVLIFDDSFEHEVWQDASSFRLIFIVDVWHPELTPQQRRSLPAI
Assay: SPE-MS AspH inhibition assay (LOPAC screen at fixed 20 μM and IC50 dose-response), hydroxylation of cyclic peptide hFX-CP101–119
Format: biochemical
Details: for Plate 3 (% conversion): LOPAC compound at 20uM, conversion of substrate peptide

[1] = LOPAC Plate 4, compound at 20 uM, substrate conversion
[2] = LOPAC Plate 4, compound at 20 uM, read-out: % inhibition
[3] = plate 5 (Pfitzer), test compounds at fixed 20 μM
[4] = plate 5 (Pfitzer), test compounds at fixed 20 μM, mean conversion DMSO 32.88
[5] = LOPAC Plate 4, compound at 20 uM
[6] = AspH activity, fixed compound concentration 20 μM, initial LOPAC screen, 0.5%v/v DMSO, read-out: Inhibition at 20 µM [%]

Row | % conversion [1] | inhibition at 20 µM [2] | SMILES | also measured
1 | 26.33% | – | C/C(=C\c1ccc(C(=O)O)cc1)c1ccc2c(c1)C(C)(C)CCC2(C)C [TTNPB] | –
2 | 39.09% | – | CCOC(=O)c1ccc(C#Cc2ccc3c(c2)C(C)(C)CCS3)nc1 [Tazarotene] | –
3 | 38.43% | -5.75% | Cc1scc2c1N(C(=O)CN1CCN(C)CC1)c1ccccc1NC2=O [Telenzepine dihydrochloride] | –
4 | 45.15% | -25.4% | CC(C)(C)c1ccc(C(O)CCCN2CCC(C(O)(c3ccccc3)c3ccccc3)CC2)cc1 (stereo not shown) [Terfenadine] | –
5 | 27.36% | – | COc1cc2c(cc1OC)C1CC(=O)C(CC(C)C)CN1CC2 (stereo not shown) [Tetrabenazine] | –
6 | 26.15% | – | Cn1cnc2c1c(=O)[nH]c(=O)n2C [Theobromine] | –
7 | 43.98% | – | CSc1ccc2c(c1)N(CCC1CCCCN1C)c1ccccc1S2 (stereo not shown) [Thioridazine hydrochloride] | –
8 | 37.21% | -2.16% | CCN(CC)CCNC(=O)c1cc(S(C)(=O)=O)ccc1OC [Tiapride hydrochloride] | –
9 | 36.66% | – | Cc1ccc(S(=O)(=O)NC(=O)NN2CCCCCC2)cc1 [Tolazamide] | –
10 | 35.26% | – | COc1ccc(/C=C/C(=O)Nc2ccccc2C(=O)O)cc1OC [Tranilast] | –
11 | 39.67% | -9.38% | O=c1n(CCCN2CCN(c3cccc(Cl)c3)CC2)nc2ccccn12 [Trazodone hydrochloride] | –
12 | 28.50% | – | COc1cc2c(cc1OC)-c1c/c(=N\c3c(C)cc(C)cc3C)n(C)c(=O)n1CC2 [Trequinsin hydrochloride] | –
13 | 37.33% | – | COc1cc(Cc2cnc(N)nc2N)cc(OC)c1OC [Trimethoprim] | –
14 | 41.64% | -15.1% | CC(CN(C)C)CN1c2ccccc2CCc2ccccc21 (stereo not shown) [Trimipramine maleate] | –

Continued, compound first:

Row | SMILES | % conversion [1] | inhibition at 20 µM [2] | also measured
15 | CC/C(=C(\c1ccccc1)c1ccc(OCCN(C)C)cc1)c1ccccc1 [Tamoxifen citrate] | 11.73% | 72.5% | –
16 | NCCS(=O)(=O)O [Taurine] | 39.69% | -9.43% | –
17 | O=c1[nH]c(=O)n(C2CCCO2)cc1F (stereo not shown) [Tegafur] | 31.54% | – | –
18 | CO[C@H]1C[C@@H]2CC[C@@H](C)[C@@](O)(O2)C(=O)C(=O)N2CCCC[C@H]2C(=O)O[C@H]([C@H](C)C[C@@H]2CC[C@@H](OC(=O)C(C)(CO)CO)[C@H](OC)C2)CC(=O)[C@H](C)/C=C(\C)[C@@H](O)[C@@H](OC)C(=O)[C@H](C)C[C@H](C)/C=C/C=C/C=C/1C [Temsirolimus] | – | – | Plate 5 (% inhibition) [3]: 52.39%; Plate 5 (% conversion) [4]: 18.48%
19 | CC(C)(C)NCC(O)c1cc(O)cc(O)c1.CC(C)(C)NCC(O)c1cc(O)cc(O)c1.O=S(=O)(O)O (stereo not shown) [Terbutaline hemisulfate] | 34.60% | – | % inhibition [5]: 5.48%
20 | CCCCNc1ccc(C(=O)OCCN(C)C)cc1 [Tetracaine hydrochloride] | 40.45% | -11.7% | –
21 | CCCCCCCCCCCCCCSCC(=O)O [Tetradecylthioacetic acid] | 26.50% | 29.2% | –
22 | CC[N+](CC)(CC)CC [Tetraethylammonium chloride] | – | – | % conversion: 26.96%
23 | CCN(CC)C(=S)SSC(=S)N(CC)CC [Tetraethylthiuram disulfide] | 22.31% | – | –
24 | c1ccc2c(c1)CCCC2C1=NCCN1 (stereo not shown) [Tetrahydrozoline hydrochloride] | 39.98% | -10.3% | –
25 | CC(C)NP(=O)(NC(C)C)OP(=O)(NC(C)C)NC(C)C [Tetraisopropyl pyrophosphoramide] | – | – | % conversion: 27.56%
26 | c1ccc(C2CN3CCSC3=N2)cc1 (stereo not shown) [Tetramisole hydrochloride] | 38.57% | – | –
27 | C/C=C(/C)C(=O)O[C@H]1C(C)=C2[C@H]([C@@H]1OC(=O)CCCCCCC)[C@@](C)(OC(C)=O)C[C@H](OC(=O)CCC)[C@@]1(O)[C@H]2OC(=O)[C@@]1(C)O [Thapsigargin] | – | – | % conversion: 31.20%
28 | Cn1c(=O)c2[nH]cnc2n(C)c1=O [Theophylline] | – | – | % conversion: 39.26%; inhibition at 20 µM: -8.17%
29 | NC(=S)c1ccc[n+]([C@@H]2O[C@@H](COP(=O)([O-])OP(=O)(O)OC[C@H]3O[C@@H](n4cnc5c(N)ncnc54)C(OP(=O)([O-])O)[C@H]3O)C(O)C2O)c1.[Na+] (stereo partly shown) [Thio-NADP sodium] | 24.90% | – | –
30 | S=C(NC1CCCCC1)N1CCC(c2cnc[nH]2)CC1 [Thioperamide maleate] | – | -2.35% | % conversion: 37.27%
31 | CN(C)c1cc(NC(=O)CNC(C)(C)C)c(O)c2c1C[C@H]1C[C@H]3[C@H](N(C)C)C(O)=C(C(N)=O)C(=O)[C@@]3(O)C(O)=C1C2=O [Tigecycline, tigecycline, reference compound] | – | – | IC50 (50 nM His6-AspH315–758, 1.0 μM hFX-CP101–119, 3 μM 2OG, 2 μM Fe(II), 50 mM HEPES pH 7.5, 20 °C, mean ± SD, n = 2 (2,4-PDCA n = 10), read-out: IC50): 7.6 ± 1.95 µM; inhibition at 20 µM [6]: 95.3%; Plate 5 (% inhibition) [3]: 90.85%; Plate 5 (% conversion) [4]: 5.39%
32 | CCCCS(=O)(=O)N[C@@H](Cc1ccc(OCCCCC2CCNCC2)cc1)C(=O)O [Tirofiban hydrochloride monohydrate] | 29.35% | – | –
33 | Clc1ccc2nsnc2c1NC1=NCCN1 [Tizanidine hydrochloride] | 37.51% | – | –
34 | CCCCNC(=O)NS(=O)(=O)c1ccc(C)cc1 [Tolbutamide] | 37.22% | -2.2% | –
35 | Cc1ccc(O)c([C@H](CCN(C(C)C)C(C)C)c2ccccc2)c1 [Tolterodine] | – | – | Plate 5 (% conversion): 15.18%; Plate 5 (% inhibition): 62.09%

Row | SMILES | % conversion [1] | inhibition at 20 µM [2] | also measured
36 | CNCC[C@@H](Oc1ccccc1C)c1ccccc1 [Tomoxetine] | 38.97% | -7.33% | –
37 | CC[C@@]1(O)C(=O)OCc2c1cc1n(c2=O)Cc2cc3c(CN(C)C)c(O)ccc3nc2-1.Cl.O [Topotecan hydrochloride hydrate] | – | – | Plate 3 (% conversion): 37.14%
38 | CCOC(=O)N1c2ccc(C(F)(F)F)cc2[C@@H](N(Cc2cc(C(F)(F)F)cc(C(F)(F)F)c2)C(=O)OC)C[C@H]1CC [Torcetrapib] | – | – | Plate 5 (% inhibition) [3]: 13.93%; Plate 5 (% conversion) [4]: 31.57%
39 | CCOC(=O)[C@H](CCc1ccccc1)N[C@@H](C)C(=O)N1[C@H](C(=O)O)C[C@H]2CCCC[C@@H]21 [Trandolapril] | – | – | Plate 3 (% conversion): 36.50%
40 | N[C@@H]1C[C@H]1c1ccccc1 [Tranylcypromine hydrochloride] | – | – | % conversion: 34.80%
41 | C[C@]12C=CC(=O)C=C1CC[C@H]1[C@@H]3C[C@@H](O)[C@](O)(C(=O)CO)[C@@]3(C)C[C@H](O)[C@@]12F [Triamcinolone] | 30.89% | – | –
42 | Nc1nc(N)c2nc(-c3ccccc3)c(N)nc2n1 [Triamterene] | 36.11% | – | –
43 | CN1CCN(CCCN2c3ccccc3Sc3ccc(C(F)(F)F)cc32)CC1 [Trifluoperazine dihydrochloride] | – | – | inhibition at 20 µM: -68.5%
44 | O=C(CCCN1CCC(O)(c2cccc(C(F)(F)F)c2)CC1)c1ccc(F)cc1 [Trifluperidol hydrochloride] | 30.59% | – | –
45 | CN(C)CCCN1c2ccccc2Sc2ccc(C(F)(F)F)cc21 [Triflupromazine hydrochloride] | – | – | inhibition at 20 µM: -23.1%
46 | CC(=O)Oc1cc(C(F)(F)F)ccc1C(=O)O [Triflusal] | 27.02% | – | –
47 | OC(CCN1CCCCC1)(c1ccccc1)C1CCCCC1 (stereo not shown) [Trihexyphenidyl hydrochloride] | 39.76% | -9.65% | –
48 | Cc1ccc(/C(=C\CN2CCCC2)c2ccccn2)cc1.Cl [Triprolidine hydrochloride] | 39.09% | – | % inhibition [5]: -7.68%
49 | N[C@@H]1[C@H]2CN(c3nc4c(cc3F)c(=O)c(C(=O)O)cn4-c3ccc(F)cc3F)C[C@@H]12 [Trovafloxacin mesylate] | – | – | Plate 1 (% inhibition) (LOPAC compound at fixed 20 uM, plate 1, normalised to DMSO and 2,4-PDCA controls): -24.51%; Plate 1 (% conversion) (LOPAC compound at fixed 20 uM, substrate conversion, plate 1): 44.10%
50 | N[C@@H]1[C@H]2CN(c3nc4c(cc3F)c(=O)c(C(=O)O)cn4-c3ccc(F)cc3F)C[C@@H]12 [Trovafloxacin] | – | – | Plate 5 (% inhibition) [3]: -0.64%; Plate 5 (% conversion) [4]: 36.53%
51 | NCCc1c[nH]c2ccccc12 [Tryptamine hydrochloride] | – | – | Plate 1 (% conversion): 34.54%; Plate 1 (% inhibition): 3.95%
52 | CC(C)(C)NCC(O)c1ccccc1Cl (stereo not shown) [Tulobuterol hydrochloride] | 41.18% | -13.8% | –
53 | N#CC(C#N)=Cc1ccc(O)c(O)c1 [Tyrphostin 23, reference compound] | 2.79% | 98.7% | inhibition at 20 µM [6]: 98.7%
54 | N#C/C(=C\c1ccc(O)c(O)c1)C(N)=S [Tyrphostin 47, reference compound] | – | – | % conversion: 2.14%; inhibition at 20 µM: 101%; inhibition at 20 µM (read-out: Inhibition at 20 µM [%]): 101%
55 | N#CC(C#N)=C(N)/C(C#N)=C/c1cc(O)c(O)c(O)c1 [Tyrphostin 51, reference compound] | 2.15% | 101% | inhibition at 20 µM [6]: 101%
